In patent US20260166128A1, “HUMAN AMYLIN ANALOG, AND DERIVATIVE THEREOF AND USE THEREOF” (priority 2022, published 2026):
Numbered stars: 1 amine (or outer) side, 2 acyl side, 3 side chain; on linkers, the order of the positions; unused ones are H or OH. Bridge positions count the residues as written; N and C are the ends. Square brackets hold non-standard residues; d marks the D form. Peptide text beside a SMILES is read from it. * marks the point of attachment. C20 diacid = O=C(O)CCCCCCCCCCCCCCCCCCC(=O)*; γGlu = O=C(O)[C@H](CCC(=O)[*:2])N[*:1]; βAsp = O=C(O)[C@H](CC(=O)[*:2])N[*:1]; Hyp = O=C(O)[C@@H]1C[C@@H](O)CN1; AEEA = NCCOCCOCC(=O)O; Inp = O=C(O)C1CCNCC1

Each compound was assayed against T1, human amylin receptor (Homo sapiens, UniProt O60896+P30988) (assay: Luciferase assay of amylin derivatives in amylin receptor/CRE-luc CHO cell line). Details: CHO-K1/Ga15/AMY3 CRE-luc cells, 24 hours incubation, F12 medium containing 10% FBS; read-out: EC50.
T1 construct: host or cells: CHO-K1/Ga15/AMY3 cells, further stably transfected with a CRE-luciferase plasmid
T1 sequence (P30988 25-474): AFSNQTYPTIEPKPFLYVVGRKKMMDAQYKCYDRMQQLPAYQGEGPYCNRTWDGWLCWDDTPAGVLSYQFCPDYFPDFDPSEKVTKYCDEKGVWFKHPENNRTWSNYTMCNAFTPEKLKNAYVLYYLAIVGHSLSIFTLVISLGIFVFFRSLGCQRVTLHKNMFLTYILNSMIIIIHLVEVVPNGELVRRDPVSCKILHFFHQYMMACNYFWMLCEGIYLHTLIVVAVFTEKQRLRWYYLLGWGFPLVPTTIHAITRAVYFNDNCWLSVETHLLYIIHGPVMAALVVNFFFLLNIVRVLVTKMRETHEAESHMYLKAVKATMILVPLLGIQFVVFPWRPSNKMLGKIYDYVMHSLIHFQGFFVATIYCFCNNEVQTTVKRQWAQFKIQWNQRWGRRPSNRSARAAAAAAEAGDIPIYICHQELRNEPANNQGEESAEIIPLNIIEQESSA
T1 sequence (O60896 24-148 partner): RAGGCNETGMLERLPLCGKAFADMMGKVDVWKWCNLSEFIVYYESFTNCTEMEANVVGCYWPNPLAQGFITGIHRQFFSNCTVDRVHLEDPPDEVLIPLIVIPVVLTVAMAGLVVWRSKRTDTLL
Format: cell-based
Experimental: The experiment was intended to detect the activity or efficacy of the amylin derivatives on a human amylin receptor in vitro by luciferase assay.
50 μL of growth medium (F12 medium containing 10% FBS) was added into each well of a white 96-well plate, and the stably transfected amylin/CRE-lue CHO cells were inoculated into the white 96-well plate at a density of about 20,000 cells/well for activity determination.
An EC50 of 0.04 nM was found for `CC[C@H](C)[C@H](NC(=O)[C@@H]1CCCN1C(=O)[C@H](CCCCN)NC(=O)[C@H](CC(C)C)NC(=O)[C@H](CC(N)=O)NC(=O)[C@H](CC(N)=O)NC(=O)[C@H](CO)NC(=O)[C@H](CO)NC(=O)[C@H](Cc1c[nH]cn1)NC(=O)[C@H](CCCNC(=N)N)NC(=O)[C@H](CC(C)C)NC(=O)[C@H](Cc1ccccc1)NC(=O)[C@H](CC(=O)O)NC(=O)[C@H](C)NC(=O)[C@H](CC(C)C)NC(=O)[C@H](CCCNC(=N)N)NC(=O)[C@H](CCC(N)=O)NC(=O)[C@@H](NC(=O)[C@H](C)NC(=O)[C@@H]1CSSC[C@H](NC(=O)[C@H](CCCCN)NC(=O)COCCOCCNC(=O)COCCOCCNC(=O)C[C@H](NC(=O)CCCCCCCCCCCCCCCCCCC(=O)O)C(=O)O)C(=O)N[C@@H](CC(N)=O)C(=O)N[C@@H]([C@@H](C)O)C(=O)N[C@@H](C)C(=O)N[C@@H]([C@@H](C)O)C(=O)N1)[C@@H](C)O)C(=O)N[C@@H](CC(C)C)C(=O)N1CCC[C@H]1C(=O)N1CCC[C@H]1C(=O)N[C@H](C(=O)N[C@@H](CC(N)=O)C(=O)N[C@H](C(=O)NCC(=O)N[C@@H](CO)C(=O)N[C@@H](CC(N)=O)C(=O)N[C@H](C(=O)N1C[C@H](O)C[C@H]1C(N)=O)[C@@H](C)O)C(C)C)[C@@H](C)O` [PD183] ({C20 diacid-βAsp-AEEA-AEEA}-KCNTATCATQRLADFLRHSSNNLKPILPPTNVGSNT[Hyp]-NH2; disulfide 2-7) in this work.
An EC50 of 0.037 nM was found for `CC[C@H](C)[C@H](NC(=O)[C@@H]1CCCN1C(=O)[C@H](CCCCN)NC(=O)[C@H](CC(C)C)NC(=O)[C@H](CC(N)=O)NC(=O)[C@H](CC(N)=O)NC(=O)[C@H](CO)NC(=O)[C@H](CO)NC(=O)[C@H](Cc1c[nH]cn1)NC(=O)[C@H](CCCNC(=N)N)NC(=O)[C@H](CC(C)C)NC(=O)[C@H](Cc1ccccc1)NC(=O)[C@H](CC(=O)O)NC(=O)[C@H](C)NC(=O)[C@H](CC(C)C)NC(=O)[C@H](CCCNC(=N)N)NC(=O)[C@H](CCC(N)=O)NC(=O)[C@@H](NC(=O)[C@H](C)NC(=O)[C@@H]1CSSC[C@H](NC(=O)[C@H](CCCCN)NC(=O)C[C@H](NC(=O)COCCOCCNC(=O)COCCOCCNC(=O)CCCCCCCCCCCCCCCCCCC(=O)O)C(=O)O)C(=O)N[C@@H](CC(N)=O)C(=O)N[C@@H]([C@@H](C)O)C(=O)N[C@@H](C)C(=O)N[C@@H]([C@@H](C)O)C(=O)N1)[C@@H](C)O)C(=O)N[C@@H](CC(C)C)C(=O)N1CCC[C@H]1C(=O)N1CCC[C@H]1C(=O)N[C@H](C(=O)N[C@@H](CC(N)=O)C(=O)N[C@H](C(=O)NCC(=O)N[C@@H](CO)C(=O)N[C@@H](CC(N)=O)C(=O)N[C@H](C(=O)N1C[C@H](O)C[C@H]1C(N)=O)[C@@H](C)O)C(C)C)[C@@H](C)O` [PD184] ({C20 diacid-AEEA-AEEA-βAsp}-KCNTATCATQRLADFLRHSSNNLKPILPPTNVGSNT[Hyp]-NH2; disulfide 2-7 (inferred)) in this work.
An EC50 of 0.025 nM was found for `CC[C@H](C)[C@H](NC(=O)[C@@H]1CCCN1C(=O)[C@H](CCCCN)NC(=O)[C@H](CC(C)C)NC(=O)[C@H](CC(N)=O)NC(=O)[C@H](CC(N)=O)NC(=O)[C@H](CO)NC(=O)[C@H](CO)NC(=O)[C@H](Cc1c[nH]cn1)NC(=O)[C@H](CCCNC(=N)N)NC(=O)[C@H](CC(C)C)NC(=O)[C@H](Cc1ccccc1)NC(=O)[C@H](CC(=O)O)NC(=O)[C@H](C)NC(=O)[C@H](CC(C)C)NC(=O)[C@H](CCCNC(=N)N)NC(=O)[C@H](CCC(N)=O)NC(=O)[C@@H](NC(=O)[C@H](C)NC(=O)[C@@H]1CSSC[C@H](NC(=O)[C@H](CCCCN)NC(=O)CC[C@H](NC(=O)COCCOCCNC(=O)COCCOCCNC(=O)CCCCCCCCCCCCCCCCCCC(=O)O)C(=O)O)C(=O)N[C@@H](CC(N)=O)C(=O)N[C@@H]([C@@H](C)O)C(=O)N[C@@H](C)C(=O)N[C@@H]([C@@H](C)O)C(=O)N1)[C@@H](C)O)C(=O)N[C@@H](CC(C)C)C(=O)N1CCC[C@H]1C(=O)N1CCC[C@H]1C(=O)N[C@H](C(=O)N[C@@H](CC(N)=O)C(=O)N[C@H](C(=O)NCC(=O)N[C@@H](CO)C(=O)N[C@@H](CC(N)=O)C(=O)N[C@H](C(=O)N1CCC[C@H]1C(N)=O)[C@@H](C)O)C(C)C)[C@@H](C)O` [PD188] ({C20 diacid-AEEA-AEEA-γGlu}-KCNTATCATQRLADFLRHSSNNLKPILPPTNVGSNTP-NH2; disulfide 2-7 (inferred)) in this work.
An EC50 of 0.087 nM was found for `CC[C@H](C)[C@H](NC(=O)[C@@H]1CCCN1C(=O)[C@H](CCCCN)NC(=O)[C@H](CC(C)C)NC(=O)[C@H](CC(N)=O)NC(=O)[C@H](CC(N)=O)NC(=O)[C@H](CO)NC(=O)[C@H](CO)NC(=O)[C@H](Cc1c[nH]cn1)NC(=O)[C@H](CCCNC(=N)N)NC(=O)[C@H](CC(C)C)NC(=O)[C@H](Cc1ccccc1)NC(=O)[C@H](CC(=O)O)NC(=O)[C@H](C)NC(=O)[C@H](CC(C)C)NC(=O)[C@H](CCCNC(=N)N)NC(=O)[C@H](CCC(N)=O)NC(=O)[C@@H](NC(=O)[C@H](C)NC(=O)[C@@H]1CSSC[C@H](NC(=O)[C@H](CCCCN)NC(=O)C2CCN(C(=O)COCCOCCNC(=O)COCCOCCNC(=O)CCCCCCCCCCCCCCCCCCC(=O)O)CC2)C(=O)N[C@@H](CC(N)=O)C(=O)N[C@@H]([C@@H](C)O)C(=O)N[C@@H](C)C(=O)N[C@@H]([C@@H](C)O)C(=O)N1)[C@@H](C)O)C(=O)N[C@@H](CC(C)C)C(=O)N1CCC[C@H]1C(=O)N1CCC[C@H]1C(=O)N[C@H](C(=O)N[C@@H](CC(N)=O)C(=O)N[C@H](C(=O)NCC(=O)N[C@@H](CO)C(=O)N[C@@H](CC(N)=O)C(=O)N[C@H](C(=O)N1CCC[C@H]1C(N)=O)[C@@H](C)O)C(C)C)[C@@H](C)O` [PD192] ({C20 diacid-AEEA-AEEA-Inp}-KCNTATCATQRLADFLRHSSNNLKPILPPTNVGSNTP-NH2; disulfide 2-7 (inferred)) in this work.
An EC50 of 0.074 nM was found for `CC[C@H](C)[C@H](NC(=O)[C@@H]1CCCN1C(=O)[C@H](CCCCN)NC(=O)[C@H](CC(C)C)NC(=O)[C@H](CC(N)=O)NC(=O)[C@H](CC(N)=O)NC(=O)[C@H](CO)NC(=O)[C@H](CO)NC(=O)[C@H](Cc1c[nH]cn1)NC(=O)[C@H](CCCNC(=N)N)NC(=O)[C@H](CC(C)C)NC(=O)[C@H](Cc1ccccc1)NC(=O)[C@H](CC(=O)O)NC(=O)[C@H](C)NC(=O)[C@H](CC(C)C)NC(=O)[C@H](CCCNC(=N)N)NC(=O)[C@H](CCC(N)=O)NC(=O)[C@@H](NC(=O)[C@H](C)NC(=O)[C@@H]1CSSC[C@H](NC(=O)[C@H](CCCCN)NC(=O)COCCOCCNC(=O)COCCOCCNC(=O)[C@H](CC(=O)O)NC(=O)CCCCCCCCCCCCCCCCCCC(=O)O)C(=O)N[C@@H](CC(N)=O)C(=O)N[C@@H]([C@@H](C)O)C(=O)N[C@@H](C)C(=O)N[C@@H]([C@@H](C)O)C(=O)N1)[C@@H](C)O)C(=O)N[C@@H](CC(C)C)C(=O)N1CCC[C@H]1C(=O)N1CCC[C@H]1C(=O)N[C@H](C(=O)N[C@@H](CC(N)=O)C(=O)N[C@H](C(=O)NCC(=O)N[C@@H](CO)C(=O)N[C@@H](CC(N)=O)C(=O)N[C@H](C(=O)N1CCC[C@H]1C(N)=O)[C@@H](C)O)C(C)C)[C@@H](C)O` [PD193] ({C20 diacid}-D[AEEA][AEEA]KCNTATCATQRLADFLRHSSNNLKPILPPTNVGSNTP-NH2; disulfide 5-10 (inferred)) in this work.
An EC50 of 0.074 nM was found for `CC[C@H](C)[C@H](NC(=O)[C@@H]1CCCN1C(=O)[C@H](CCCCN)NC(=O)[C@H](CC(C)C)NC(=O)[C@H](CC(N)=O)NC(=O)[C@H](CC(N)=O)NC(=O)[C@H](CO)NC(=O)[C@H](CO)NC(=O)[C@H](Cc1c[nH]cn1)NC(=O)[C@H](CCCNC(=N)N)NC(=O)[C@H](CC(C)C)NC(=O)[C@H](Cc1ccccc1)NC(=O)[C@H](CC(=O)O)NC(=O)[C@H](C)NC(=O)[C@H](CC(C)C)NC(=O)[C@H](CCCNC(=N)N)NC(=O)[C@H](CCC(N)=O)NC(=O)[C@@H](NC(=O)[C@H](C)NC(=O)[C@@H]1CSSC[C@H](NC(=O)[C@H](CCCCN)NC(=O)[C@H](CC(=O)O)NC(=O)COCCOCCNC(=O)COCCOCCNC(=O)CCCCCCCCCCCCCCCCCCC(=O)O)C(=O)N[C@@H](CC(N)=O)C(=O)N[C@@H]([C@@H](C)O)C(=O)N[C@@H](C)C(=O)N[C@@H]([C@@H](C)O)C(=O)N1)[C@@H](C)O)C(=O)N[C@@H](CC(C)C)C(=O)N1CCC[C@H]1C(=O)N1CCC[C@H]1C(=O)N[C@H](C(=O)N[C@@H](CC(N)=O)C(=O)N[C@H](C(=O)NCC(=O)N[C@@H](CO)C(=O)N[C@@H](CC(N)=O)C(=O)N[C@H](C(=O)N1CCC[C@H]1C(N)=O)[C@@H](C)O)C(C)C)[C@@H](C)O` [PD194] ({C20 diacid-AEEA-AEEA}-DKCNTATCATQRLADFLRHSSNNLKPILPPTNVGSNTP-NH2; disulfide 3-8 (inferred)) in this work.
